Laboratory results: patent US9539280B2, “Cartilage production promoter and prophylactic or therapeutic agent for diseases associated with cartilage damage” (NATIONAL UNIVERSITY CORPORATION TOTTORI UNIVERSITY, priority 2009, dated 2017)
“Also recorded” adds a separate entry of the source.

Key:
Assay type in all cases: in vivo, rabbit
[1] = tested on: proteoglycan; experiment: Histological observation, staining with safranin-O and image analysis
Procedure: (§1) As animal specimens, groups of female white rabbits (weight: about 2.0 kg) were used, the number of the rabbits in each of the groups being 3. The rabbits were habituated to the environment for one week from the time of delivery. Thereafter, 0.1 mg/kg of medetomidine was subcutaneously injected into each of the rabbits, and 25 mg/kg of Ketalar was intramuscularly injected thereto. About each of the rabbit specimens subjected to the injection anesthesia, the left knee joint was shaved, and then disinfected. Thereafter, approaching from the outside of the knee joint, the articular capsule was opened and the knee joint was exposed completely by shifting the patella to the inside. With reference to the experiment of Tamai et al. (Carbohydrate Polymers, 2002, vol. 48, pp. 369-378), three holes of 2 mm in diameter and 4 mm in depth were bored with a hand-drill at the proximal trochlear groove, distal trochlear groove, and the medial trochlear ridge. Thereafter, the sites were sufficiently rinsed, and then the articular capsule was sutured with 3-0PDS (polydioxanone). […]
(§2) The left femur of each of the damaged models in Example 1 was recovered, and then fixed with a 10% neutral buffered formalin aqueous solution (formaldehyde solution). […] The number of pixels in which a target color tone occupied was measured. […]

[2] = tested on: glycosaminoglycan; experiment: Histological observation, staining with alcian blue and image analysis
Procedure: as §1, §2

[3] = tested on: damaged models (holes bored at proximal trochlear groove, distal trochlear groove and medial trochlear ridge of left knee joint); experiment: Macroscopic observation of the degree of healing in cartilage damaged models; details: after 3 weeks
Procedure: As animal specimens, groups of female white rabbits (weight: about 2.0 kg) were used, the number of the rabbits in each of the groups being 3. The rabbits were habituated to the environment for one week from the time of delivery. Thereafter, 0.1 mg/kg of medetomidine was subcutaneously injected into each of the rabbits, and 25 mg/kg of Ketalar was intramuscularly injected thereto. About each of the rabbit specimens subjected to the injection anesthesia, the left knee joint was shaved, and then disinfected. Thereafter, approaching from the outside of the knee joint, the articular capsule was opened and the knee joint was exposed completely by shifting the patella to the inside. With reference to the experiment of Tamai et al. (Carbohydrate Polymers, 2002, vol. 48, pp. 369-378), three holes of 2 mm in diameter and 4 mm in depth were bored with a hand-drill at the proximal trochlear groove, distal trochlear groove, and the medial trochlear ridge. Thereafter, the sites were sufficiently rinsed, and then the articular capsule was sutured with 3-0PDS (polydioxanone). The subcutaneous tissue and the skin were simultaneously sutured with stainless steel wires. […] The degree of healing of each of the damages was scored on the basis of Table 1, and evaluated. […] About each of the damaged model groups, the degree of healing was evaluated on the basis of the criterion in Example 2. […]

[4] = Observation of side effects during fucoidan administration; details: 1 g fucoidan in 50 mL water every day by natural intake, 3 weeks, female white rabbits
Procedure: From the day of the operation, initially every day, water (50 mL) in which 1 g of a fucoidan was dissolved were dosed to the rabbits in the fucoidan-administered group by natural intake. Thereafter, water was given to the rabbits to drink freely. This was continued for 3 weeks. Only water was given to the rabbits in the control group.

[5] = Example 3, FIG. 6, vs control group, t-test

fucoidan
image analysis of safranin-O-stained images (proteoglycan) [1, 5]: significantly higher value | safranin-O staining of repaired regions (proteoglycan content) ([1]; Example 3, FIGS. 4 and 5, proximal and distal trochlear groove, microscope): a large amount of proteoglycan was contained | image analysis of alcian blue-stained images (glycosaminoglycan) [2, 5]: significantly higher value | alcian blue staining of repaired regions (glycosaminoglycan content) ([2]; Example 3, FIGS. 2 and 3, proximal and distal trochlear groove, microscope): a large amount of glycosaminoglycan was contained | degree of healing (macroscopic observation) ([3]; Example 2, FIG. 1, vs control group): many of the damages were satisfactorily cured; also recorded: good therapeutic results | tissue in the damaged sites ([3]; Example 2, control filled with collagen fibers, fibroblasts): substituted with chondroblasts and cartilage tissues | signs of side effects [4]: no signs of side effects
